Experimental data: patent US10722528B2, “Compositions and methods for inhibiting metastasis” (Augusta University Research Institute, Inc., priority 2018, dated 2020)

Assays:
[1] = test system: EMT6 cells co-cultured with mMDSCs; assay: EMT6 cells co-cultured with mMDSCs and NOS2 inhibitor 1400W (qPCR, Western blot); assay type: cell-based, mouse
Description: (§1) FIGS. 5A-5D are bar graphs showing expression of IL6 (FIG. 5A), IL1A (FIG. 5B), TGFB (FIG. 5C), and Vimentin (FIG. 5D) in EMT6 cells (white bars), EMT6 cells+0.5 mM DPTA (gray bars), and EMT6 cells+2.5 mM DPTA (black bars). FIG. 5E-5H are bar graphs showing expression of IL6 (FIG. 5E), IL1A (FIG. 5F), TGFB (FIG. 5G), and Vimentin (FIG. 5H) in EMT6 cells (white bars), EMT6 cells+mMDSCs (gray bars), and EMT6 cells+mMDSCs/1400W (black bar). FIG. 5I is a representative Western blot showing pSTAT3, STAT3, pSTAT1, STAT1, Vimentin, Twist, and actin expression in untreated EMT6 cell, or EMT6 cells treated with 0.5 mM or 2.5 mM DPTA, mMDSCs, or mMDSCs+1400W.
(§2) For RT-PCR analyses, KiCqStart SYBR Green predesigned primers (Sigma) were used for the following genes: […]
(§3) The relative fold change was measured by 2-ΔΔCt formula compared to the control cells. Means and differences of the means with 95% confidence intervals were obtained using GraphPad Prism (GraphPad Software Inc.). Two-tailed Student's t-test was used for unpaired analysis comparing average expression between conditions. P values<0.05 were considered statistically significant.

EMT6 cells = test system: EMT6 cells
Description: as §1, §2, §3

[2] = test system: gMDSC differentiation in bone marrow cells; assay: In vitro screening of gMDSC differentiation in bone marrow cells (GM-CSF/G-CSF, flow cytometry); assay type: cell-based, mouse; settings: GM-CSF, 3 days, flow cytometry (Ly6c+Ly6g+CD11b+)
Description: BALB/c mice were euthanized by CO2 asphyxiation. The femur bones were carefully resected under sterile conditions, cleaned to remove the attached muscle/tissue, and cleaned with 70% ethanol. The bones were then transferred on to a sterile Petri dish with culture medium Roswell Park Memorial Institute (RPMI)-1640. Both ends of femurs were carefully trimmed using sterile, sharp scissors to expose the interior marrow shaft. The contents of marrow were flushed with 2-4 ml of culture medium (RPMI-1640 supplemented with 10% FBS) using 1-ml insulin syringe with a 29G×½ needle. Later, the bone marrow was flushed out onto a 70 μm nylon cell strainer placed in a 50 ml Falcon conical tube (The bones should appear white once all the marrow has been expelled out completely). The collected BM cell suspension was further diluted with 20 ml of phosphate buffer saline (PBS), and the cell suspension was centrifuged at 1,000 rpm […]. The supernatant and the cell pellet were collected using red blood cell (RBC) lysis buffer and incubated for 5 minutes. 5-10 mL of PBS was added, and the solution was centrifuged at 1,000 rpm for 5 minutes. The supernatant was discarded and the cell pellet was washed with PBS, and re-centrifuged at 1,000 rpm for 5 minutes. The cells were re-suspended with RPMI medium containing 10% FBS and used for assays or culture.
Computational screening of certain select NCI chemical library was performed again the crystal structure of calprotectin. 40 lead compounds were identified with potential to bind to calprotectin and suppress gMDSC differentiation. In vitro screening using the 40 lead compounds was performed. Bone marrow cells were counted using hemocytometer or Beckman Z2 coulter counter and suspended in culture medium (RPMI 1640+10% FBS+1% penicillin/streptomycin) to achieve a final cell density of 2×10^6 BM cells/well. T20 ng/mL of recombinant mouse GM-CSF (Granulocyte Macrophage—Colony Stimulating Factor Protein) was added followed by 50 ng/mL G-CSF or individual selected drug. […]

[3] = test system: MDSC-related genes in bone marrow cells; assay: Expression of MDSC-related genes in bone marrow cells treated with GCSF and compound; assay type: cell-based, mouse
Source text: FIG. 13A is a bar graph showing Ly6c+Ly6g+CD11b+gMDSCs differentiation in vitro in bone marrow cells treated with GCSF and the lead NCI compounds identified by computational screen against S100A8/A9 (calprotectin). FIGS. 13B-13K are representative flow cytometry plots showing the expression of CD11b and Ly6C in bone marrow cells treated with compounds 4, 10, 13, and 15. FIGS. 13L-13R are bar graphs showing the expression of MDSC-related genes (S100A8, FIG. 13L; S100A9, FIG. 13M; GCSF, FIG. 13N; IL1A, FIG. 13O; NOS2, FIG. 13P; CYB1, FIG. 13Q; and IL4R, FIG. 13R) in bone marrow cells treated with GCSF (black bars), GCSF+#4 (dark gray bars), GCSF+#10 (light gray bars), or untreated (white bars).
P values<0.05 were considered statistically significant.

4T1 tumor = assay: Metastatic 4T1-injected mice treated with drug #10 (bioluminescence imaging, MDSC infiltration); assay type: in vivo, mouse
Source text: FIG. 14A-14D are bioluminescence images of metastatic 4T1-injected mice untreated or treated with drug #10. FIG. 14E-14H are bar graphs showing the extent of mMDSC infiltration in the primary tumor (FIG. 14H) and the BM (FIG. 14E), spleen (FIG. 14F), and lung (FIG. 14G) of metastatic 4T1-injected mice untreated (black bars) or treated with drug #10 (gray bars). FIG. 14I-14L are bar graphs showing the extent of gMDSC infiltration in the primary tumor (FIG. 14L) and the BM (FIG. 14I), spleen (FIG. 14J), and lung (FIG. 14K) of metastatic 4T1-injected mice untreated (black bars) or treated with drug #10 (gray bars).
Luciferase expressing 4T1 or EMT6 murine breast cancer cells (50,000 cells per mice) were orthotopically implanted into the fat pads of 5-week-old BALB/c mice. (AT-3 cells in C57BL/J6 mice) and these mice were imaged utilizing the Caliper IVIS imaging systems. To analyse MDSCs, tumor-bearing mice were sacrificed every week and single-cell suspensions were prepared from bone marrows, spleens, lungs and tumor tissues. Bone marrow cells were obtained by flushing bones with PBS using a 28G 1/2 syringe. […]
These cells were labeled with fluorescence-conjugated Ly6C (#128015-dilution 1/400), Ly6G (#127605-dilution 1/100) and CD11b (#101208-Dilution 1/200) antibodies (Biolegend) and analyzed on a FACS canto flow cytometer (BD Biosciences).

T cell proliferation = assay: In vitro suppression: bone marrow cells treated with recombinant protein plus GM-CSF, then co-incubated with activated CFSE labeled T cells; assay type: cell-based, mouse; settings: 7 days, then 3 days with activated CFSE labeled T cells
Description: In vitro suppression: Multigrams of recombinant Calprotectin, S100A8 and S100A9 proteins were isolated, purified and confirmed for their activity with commercially available proteins. Bone marrow cells were treated with recombinant S100A8 (A8), S100A(9) or Calprotectin (CALP) in presence of GM-CSF (Granulocyte Macrophage-Colony Stimulating Factor Protein) in vitro for 7 days for gMDSC differentiation. The cells were then co-mixed and incubated 3 more days with activated CFSE labeled T cells.
Multigrams of recombinant Calprotectin, S100A8 and S100A9 proteins were isolated, purified and confirmed for their activity with commercially available proteins. Bone marrow cells were treated with recombinant S10A8 (A8), S100A(9) or Calprotectin (CALP) in presence of GM-CSF (Granulocyte Macrophage—Colony Stimulating Factor Protein) in vitro for 7 days for gMDSC differentiation. The cells were then co-mixed and incubated 3 more days with activated CFSE labeled T cells.

EMT6-Luc tumor = assay: In vivo gMDSC induction: EMT6-Luc tumor model in BALB/c mice injected with recombinant protein; parameters: species or system mouse; settings: for tumor cell killing activity of T cells from treated mice (annexin V+ cells): compared to control treated mice; for levels of caspase 3 mediated apoptosis: treated mice versus saline
Description: In vivo gMDSC induction: EMT6 tumor model was selected as platform to examine the role of the proteins in regulation gMDSCs and the resultant metastatic cascade. EMT6-Luc cells were implanted into the mammary fat pads of BALB/c mice (purchased from Charles Rivers at NCI). The mice were then injected (via tail vein) either with saline (control), recombinant S100A9 or Calprotectin (100 ng/mouse) every alternate day for three weeks.
EMT6 tumor model was selected as platform to examine the role of the proteins in regulation gMDSCs and the resultant metastatic cascade. EMT6-Luc cells were implanted into the mammary fat pads of BALB/c mice (purchased from Charles Rivers at NCI). The mice were then injected (via tail vein) either with saline (control), recombinant S100A9 or Calprotectin (100 ng/mouse) every alternate day for three weeks.

[4] = 100 ng/mouse via tail vein every alternate day for three weeks

CC(=N)NCc1cccc(CN)c1 [1400 W]
activation of pStat1 and pStat3 pathways and EMT markers vimentin and twist (Western blot) [1]: suppressed the activation of the latter pathways and EMT markers | mMDSC-induced transcription of IL1A, IL6, TGFB1 and VIM (qPCR) [1]: suppress the mMDSC-induced transcription of these genes

NCCCN(CCCN)/[N+]([O-])=N/O [DPTA]
expression of IL1A, IL6, TGFB1 and VIM (qPCR) (EMT6 cells; 0.5 mM and 2.5 mM DPTA): induced the expressions of indicated genes | activation of pStat1 and pStat3 signaling pathways and protein levels of EMT markers vimentin and twist (Western blot) (EMT6 cells; 0.5 mM or 2.5 mM DPTA): induced the activation of pStat1 and pStat3 signaling pathways and protein levels of EMT markers

O=C1c2cccc(Oc3ccccc3)c2C(=O)c2cccc(Oc3ccccc3)c21 [compound 4, 1,5-diphenoxyanthracen-9-10-dione]
inhibition of gMDSC differentiation [2]: significant inhibition of gMDSC differentiation | expression of MDSC-related genes S100A8, S100S9, GCSF, IL1A, NOS2, CYBB1, and IL4R [3]: reduced the expression

CC12CCC3C(CCC4Cc5[nH]c6ccccc6c5CC43C)C1CCC2O (stereo not shown) [compound 10, 12a,14a-dimethyl-1,2,3,3a,3b,4,5,5a,6,7,12,12a,12b,13,14,14a-hexadecahydrocyclopenta[5,6]naphtho[2,1-b]carbazol-1-ol]
inhibition of gMDSC differentiation [2]: significant inhibition of gMDSC differentiation | expression of MDSC-related genes S100A8, S100S9, GCSF, IL1A, NOS2, CYBB1, and IL4R [3]: reduced the expression | tumor growth and metastasis (4T1 tumor; bioluminescence images): suppresses tumor growth and metastasis | gMDSC infiltration into the tumor and distant organ sites (4T1 tumor; primary tumor, BM, spleen, lung): reduce gMDSC infiltration

O=[N+]([O-])C1C(c2ccccc2)C12c1ccccc1-c1ccccc12 (stereo not shown) [compound 27]
inhibition of gMDSC differentiation [2]: significant inhibition of gMDSC differentiation

Calprotectin: recombinant complex of the mammalian proteins S100A8 and S100A9
suppression of T cell proliferation by protein treated gMDSCs (T cell proliferation): suppressed T cell proliferation more efficiently compared to S100A9 | CD8+ T cells (EMT6-Luc tumor; [4]): increase in CD8+ T cells | primary tumor growth and spontaneous metastasis (EMT6-Luc tumor; [4]): enhanced primary tumor growth and spontaneous metastasis to the lungs and liver | tumor cell killing activity of T cells from treated mice (annexin V+ cells) (EMT6-Luc tumor): significantly suppressed the tumor cell killing activity | levels of caspase 3 mediated apoptosis (EMT6-Luc tumor): reduced

S100A9: recombinant S100A9 protein, subunit of calprotectin
tumor cell killing activity of T cells from treated mice (annexin V+ cells) (EMT6-Luc tumor): moderate activity | levels of caspase 3 mediated apoptosis (EMT6-Luc tumor): reduced

B1: S100A8: recombinant S100A8 protein, subunit of calprotectin (protein, UniProt P05109 1-93, looked up)
Protein S100-A8: MLTELEKALNSIIDVYHKYSLIKGNFHAVYRDDLKKLLETECPQYIRKKGADVWFKELDINTDGAVNFQEFLILVIKMGVAAHKKSHEESHKE
suppression of T cell proliferation by protein treated gMDSCs (T cell proliferation): no significant effect
